Assay results: patent EP3375430A1, “FRAGRANCE COMPOSITIONS” (Takasago International Corporation, priority 2017, dated 2018)

Assays:
[1] = Amount of fragrance ingredients retained on paper blotter after evaporation (ethanol extraction, GC-MS); format: physicochemical
Procedure, shortened: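 100 µL of fragrance formulation applied to paper blotters kept at 32°C open to air; at each time three blotters extracted 1 h in ethanol with methyl decanoate internal standard and analysed by GC-MS (HP-5MS, 50–280°C). Amounts averaged over triplicates and expressed as percent of time-zero level.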

[2] = Headspace concentration of fragrance ingredients over blotter (thermal desorption GC-MS); format: physicochemical; conditions: fragrance TAK;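 for headspace concentration in composition C1 compared to control EdT1: C1 is an invention composition and EdT1 a conventional EdT of fragrance TAK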
Procedure, shortened: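 Fragrance (100µL) applied to a 10 cm perfumers' blotter held on a 32°C hot plate, equilibrated 5 min; headspace drawn through Tenax TA tubes at 17mL/min until 280mL collected, repeated at later sampling times. Tubes thermally desorbed splitless onto HP-5MS column, GC-MS detection, mass range 35 to 350.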

[3] = Table 3, fragrance TAK in C1, 15 min, 32°C
[4] = Table 3, fragrance TAK in C1, 60 min, 32°C
[5] = Table 3, fragrance TAK in C1, 120 min, 32°C
[6] = Table 3, fragrance TAK in C1, 240 min, 32°C
[7] = Table 3, fragrance TAK in C1, 480 min, 32°C
[8] = Table 3, fragrance TAK in EdT1, 15 min, 32°C
[9] = Table 3, fragrance TAK in EdT1, 60 min, 32°C
[10] = Table 3, fragrance TAK in EdT1, 120 min, 32°C
[11] = Table 3, fragrance TAK in EdT1, 240 min, 32°C
[12] = Table 3, fragrance TAK in EdT1, 480 min, 32°C
[13] = Table 3, fragrance TAK in EdT1 or C1, T0, set at 100% (normalisation)
[14] = Table 4, fragrance TAK in C2, 15 min, 32°C
[15] = Table 4, fragrance TAK in C2, 480 min, 32°C
[16] = Table 4, fragrance TAK in EdT1, 15 min, 32°C
[17] = Table 4, fragrance TAK in EdT1, 480 min, 32°C
[18] = Table 4, fragrance TAK in EdT1 or C2, T0, set at 100% (normalisation)
[19] = Table 5, fragrance TAK in C3, 15 min, 32°C
[20] = Table 5, fragrance TAK in C3, 60 min, 32°C
[21] = Table 5, fragrance TAK in C3, 120 min, 32°C
[22] = Table 5, fragrance TAK in C3, 240 min, 32°C
[23] = Table 5, fragrance TAK in C3, 480 min, 32°C
[24] = Table 5, fragrance TAK in C3, 1440 min, 32°C
[25] = Table 5, fragrance TAK in EdT1, 15 min, 32°C
[26] = Table 5, fragrance TAK in EdT1, 60 min, 32°C
[27] = Table 5, fragrance TAK in EdT1, 120 min, 32°C
[28] = Table 5, fragrance TAK in EdT1, 240 min, 32°C
[29] = Table 5, fragrance TAK in EdT1, 480 min, 32°C
[30] = Table 5, fragrance TAK in EdT1, 1440 min, 32°C
[31] = Table 5, fragrance TAK in EdT1 or C3, T0, set at 100% (normalisation)
[32] = Table 6, fragrance TAK in C4, 15 min, 32°C
[33] = Table 6, fragrance TAK in C4, 60 min, 32°C
[34] = Table 6, fragrance TAK in C4, 120 min, 32°C
[35] = Table 6, fragrance TAK in C4, 240 min, 32°C
[36] = Table 6, fragrance TAK in C4, 480 min, 32°C
[37] = Table 6, fragrance TAK in EdT1, 15 min, 32°C
[38] = Table 6, fragrance TAK in EdT1, 60 min, 32°C
[39] = Table 6, fragrance TAK in EdT1, 120 min, 32°C
[40] = Table 6, fragrance TAK in EdT1, 240 min, 32°C
[41] = Table 6, fragrance TAK in EdT1, 480 min, 32°C
[42] = Table 6, fragrance TAK in EdT1 or C4, T0, set at 100% (normalisation)

C=C(C)[C@H]1CC=C(C)CC1 [Limonene]
amount of fragrance ingredient retained on blotter (percentage of the initial amount) [1, 3]: 18% | amount of fragrance ingredient retained on blotter (percentage of the initial amount) [1, 4]: 1% | amount of fragrance ingredient retained on blotter (percentage of the initial amount) [1, 5]: 1% | amount of fragrance ingredient retained on blotter (percentage of the initial amount) [1, 6]: 1% | amount of fragrance ingredient retained on blotter (percentage of the initial amount) [1, 7]: <1% | amount of fragrance ingredient retained on blotter (percentage of the initial amount) [1, 8]: 1% | amount of fragrance ingredient retained on blotter (percentage of the initial amount) [1, 9]: <1% | amount of fragrance ingredient retained on blotter (percentage of the initial amount) [1, 10]: <1% | amount of fragrance ingredient retained on blotter (percentage of the initial amount) [1, 11]: <1% | amount of fragrance ingredient retained on blotter (percentage of the initial amount) [1, 12]: <1% | amount of fragrance ingredient retained on blotter (percentage of the initial amount) [1, 13]: 100% | amount of fragrance ingredient retained on blotter (percentage of the initial amount) [1, 14]: 29% | amount of fragrance ingredient retained on blotter (percentage of the initial amount) [1, 15]: <1% | amount of fragrance ingredient retained on blotter (percentage of the initial amount) [1, 16]: 2% | amount of fragrance ingredient retained on blotter (percentage of the initial amount) [1, 17]: <1% | amount of fragrance ingredient retained on blotter (percentage of the initial amount) [1, 18]: 100% | amount of fragrance ingredient retained on blotter (percentage of the initial amount) [1, 19]: 19% | amount of fragrance ingredient retained on blotter (percentage of the initial amount) [1, 20]: <1% | amount of fragrance ingredient retained on blotter (percentage of the initial amount) [1, 21]: <1% | amount of fragrance ingredient retained on blotter (percentage of the initial amount) [1, 22]: <1% | amount of fragrance ingredient retained on blotter (percentage of the initial amount) [1, 23]: <1% | amount of fragrance ingredient retained on blotter (percentage of the initial amount) [1, 24]: <1% | amount of fragrance ingredient retained on blotter (percentage of the initial amount) [1, 25]: 1% | amount of fragrance ingredient retained on blotter (percentage of the initial amount) [1, 26]: <1% | amount of fragrance ingredient retained on blotter (percentage of the initial amount) [1, 27]: <1% | amount of fragrance ingredient retained on blotter (percentage of the initial amount) [1, 28]: <1% | amount of fragrance ingredient retained on blotter (percentage of the initial amount) [1, 29]: <1% | amount of fragrance ingredient retained on blotter (percentage of the initial amount) [1, 30]: <1% | amount of fragrance ingredient retained on blotter (percentage of the initial amount) [1, 31]: 100% | amount of fragrance ingredient retained on blotter (percentage of the initial amount) [1, 32]: 17% | amount of fragrance ingredient retained on blotter (percentage of the initial amount) [1, 33]: <1% | amount of fragrance ingredient retained on blotter (percentage of the initial amount) [1, 34]: 1% | amount of fragrance ingredient retained on blotter (percentage of the initial amount) [1, 35]: 1% | amount of fragrance ingredient retained on blotter (percentage of the initial amount) [1, 36]: 1% | amount of fragrance ingredient retained on blotter (percentage of the initial amount) [1, 37]: 1% | amount of fragrance ingredient retained on blotter (percentage of the initial amount) [1, 38]: <1% | amount of fragrance ingredient retained on blotter (percentage of the initial amount) [1, 39]: <1% | amount of fragrance ingredient retained on blotter (percentage of the initial amount) [1, 40]: <1% | amount of fragrance ingredient retained on blotter (percentage of the initial amount) [1, 41]: <1% | amount of fragrance ingredient retained on blotter (percentage of the initial amount) [1, 42]: 100% | amount of fragrance ingredient retained on blotter (percentage of the initial amount) ([1]; Table 9, fragrance COM1 in C5, T0 + 15 min): 11.32% | amount of fragrance ingredient retained on blotter (percentage of the initial amount) ([1]; Table 9, fragrance COM1 in C5, T0 + 480 min): <1% | amount of fragrance ingredient retained on blotter (percentage of the initial amount) ([1]; Table 9, fragrance COM1 in C5, T0 +1440 min): <1% | amount of fragrance ingredient retained on blotter (percentage of the initial amount) ([1]; Table 9, fragrance COM1 in C6, T0 + 15 min): 6.6% | amount of fragrance ingredient retained on blotter (percentage of the initial amount) ([1]; Table 9, fragrance COM1 in C6, T0 + 480 min): <1% | amount of fragrance ingredient retained on blotter (percentage of the initial amount) ([1]; Table 9, fragrance COM1 in C6, T0 +1440 min): <1% | amount of fragrance ingredient retained on blotter (percentage of the initial amount) ([1]; Table 9, fragrance COM1 in EdT2, C5 or C6, T0, set at 100% (normalisation)): 100% | amount of fragrance ingredient retained on blotter (percentage of the initial amount) ([1]; Table 9, fragrance COM1 in EdT2, T0 + 15 min): 1.33% | amount of fragrance ingredient retained on blotter (percentage of the initial amount) ([1]; Table 9, fragrance COM1 in EdT2, T0 + 480 min): <1% | amount of fragrance ingredient retained on blotter (percentage of the initial amount) ([1]; Table 9, fragrance COM1 in EdT2, T0 +1440 min): <1% | headspace presence of ingredient ([2]; after 1 hour, both control EdT1 and composition C1, Figure 2): lost

C=CC(C)(O)CCC=C(C)C (stereo not drawn) [Linalool]
amount of fragrance ingredient retained on blotter (percentage of the initial amount) [1, 3]: 80% | amount of fragrance ingredient retained on blotter (percentage of the initial amount) [1, 4]: 61% | amount of fragrance ingredient retained on blotter (percentage of the initial amount) [1, 5]: 35% | amount of fragrance ingredient retained on blotter (percentage of the initial amount) [1, 6]: 13% | amount of fragrance ingredient retained on blotter (percentage of the initial amount) [1, 7]: 3% | amount of fragrance ingredient retained on blotter (percentage of the initial amount) [1, 8]: 57% | amount of fragrance ingredient retained on blotter (percentage of the initial amount) [1, 9]: 9% | amount of fragrance ingredient retained on blotter (percentage of the initial amount) [1, 10]: 1% | amount of fragrance ingredient retained on blotter (percentage of the initial amount) [1, 11]: 1% | amount of fragrance ingredient retained on blotter (percentage of the initial amount) [1, 12]: <1% | amount of fragrance ingredient retained on blotter (percentage of the initial amount) [1, 13]: 100% | amount of fragrance ingredient retained on blotter (percentage of the initial amount) [1, 14]: 92% | amount of fragrance ingredient retained on blotter (percentage of the initial amount) [1, 15]: 4% | amount of fragrance ingredient retained on blotter (percentage of the initial amount) [1, 16]: 58% | amount of fragrance ingredient retained on blotter (percentage of the initial amount) [1, 17]: 3% | amount of fragrance ingredient retained on blotter (percentage of the initial amount) [1, 18]: 100% | amount of fragrance ingredient retained on blotter (percentage of the initial amount) [1, 19]: 85% | amount of fragrance ingredient retained on blotter (percentage of the initial amount) [1, 20]: 61% | amount of fragrance ingredient retained on blotter (percentage of the initial amount) [1, 21]: 37% | amount of fragrance ingredient retained on blotter (percentage of the initial amount) [1, 22]: 18% | amount of fragrance ingredient retained on blotter (percentage of the initial amount) [1, 23]: 3% | amount of fragrance ingredient retained on blotter (percentage of the initial amount) [1, 24]: 1% | amount of fragrance ingredient retained on blotter (percentage of the initial amount) [1, 25]: 57% | amount of fragrance ingredient retained on blotter (percentage of the initial amount) [1, 26]: 9% | amount of fragrance ingredient retained on blotter (percentage of the initial amount) [1, 27]: 1% | amount of fragrance ingredient retained on blotter (percentage of the initial amount) [1, 28]: <1% | amount of fragrance ingredient retained on blotter (percentage of the initial amount) [1, 29]: <1% | amount of fragrance ingredient retained on blotter (percentage of the initial amount) [1, 30]: <1% | amount of fragrance ingredient retained on blotter (percentage of the initial amount) [1, 31]: 100% | amount of fragrance ingredient retained on blotter (percentage of the initial amount) [1, 32]: 81% | amount of fragrance ingredient retained on blotter (percentage of the initial amount) [1, 33]: 61% | amount of fragrance ingredient retained on blotter (percentage of the initial amount) [1, 34]: 28% | amount of fragrance ingredient retained on blotter (percentage of the initial amount) [1, 35]: 13% | amount of fragrance ingredient retained on blotter (percentage of the initial amount) [1, 36]: 8% | amount of fragrance ingredient retained on blotter (percentage of the initial amount) [1, 37]: 57% | amount of fragrance ingredient retained on blotter (percentage of the initial amount) [1, 38]: 9% | amount of fragrance ingredient retained on blotter (percentage of the initial amount) [1, 39]: 1% | amount of fragrance ingredient retained on blotter (percentage of the initial amount) [1, 40]: <1% | amount of fragrance ingredient retained on blotter (percentage of the initial amount) [1, 41]: <1% | amount of fragrance ingredient retained on blotter (percentage of the initial amount) [1, 42]: 100% | headspace concentration in composition C1 compared to control EdT1 ([2]; T0 + 4h, Figure 3): significantly greater | headspace concentration in composition C14 compared to control EdT1 ([2]; T0+4h and T0+8h, Figures 17 and 18): significantly greater | headspace concentration in composition C15 compared to control EdT1 ([2]; T0+4h and T0+8h, Figures 20 and 21, difference significant for linalool, linalyl acetate and Verdox™): greater | headspace concentration in composition C1 compared to control EdT1 ([2]; T0 + 8h, Figure 4): much greater | headspace concentration in composition C1 compared to control EdT1 ([2]; after 1 hour, Figure 2): greater
